# According to US20240270821A1, “GIP/GLP1/GCG TRI-RECEPTOR AGONISTS AND USES THEREOF” (priority 2023, published 2024):
# pEC50: −log10 of the molar value. Like-named read-outs stand apart in the source and are kept apart here. Marks after values point to notes of the source that are not given here. Starred links: 1 amine or outer side, 2 acyl side, 3 side chain; linkers in the order of their positions; H or OH if unused. Non-standard residues stand in square brackets, D forms with d. Groups on a side chain read outwards from the residue. No end group written: not given here. *: point of attachment. C20 diacid = O=C(O)CCCCCCCCCCCCCCCCCCC(=O)*; C18 diacid = O=C(O)CCCCCCCCCCCCCCCCC(=O)*; αMePhe(2-F) = C[C@](N)(Cc1ccccc1F)C(=O)O; γGlu = O=C(O)[C@H](CCC(=O)[*:2])N[*:1]; 4Pal = N[C@@H](Cc1ccncc1)C(=O)O; αMeL = CC(C)C[C@](C)(N)C(=O)O; Orn = NCCC[C@H](N)C(=O)O; Dap = NC[C@H](N)C(=O)O; AEEA = NCCOCCOCC(=O)O; Aib = CC(C)(N)C(=O)O
# Assays:
# [1] = target: human GLP1-R (Homo sapiens, UniProt P43220); experiment: GLP1-R internalization assay in HEK293 cells; type: cell-based; details: for Internalization % TOP: normalized to maximum concentration of GLP-1 (100%)
# Sequence of human GLP1-R (P43220 24-463): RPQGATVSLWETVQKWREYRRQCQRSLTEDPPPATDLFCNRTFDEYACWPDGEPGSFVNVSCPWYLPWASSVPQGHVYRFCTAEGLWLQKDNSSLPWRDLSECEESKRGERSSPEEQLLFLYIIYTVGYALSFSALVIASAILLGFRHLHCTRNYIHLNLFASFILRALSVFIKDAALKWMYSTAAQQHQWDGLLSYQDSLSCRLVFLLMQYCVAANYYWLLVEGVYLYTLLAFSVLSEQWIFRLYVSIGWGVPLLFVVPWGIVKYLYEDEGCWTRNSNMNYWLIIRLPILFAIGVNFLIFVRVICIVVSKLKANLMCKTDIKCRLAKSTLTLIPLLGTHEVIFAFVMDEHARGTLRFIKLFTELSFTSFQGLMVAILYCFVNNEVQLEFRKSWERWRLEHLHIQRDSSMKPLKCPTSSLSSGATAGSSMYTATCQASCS
# [2] = target: hGcgR (Homo sapiens, UniProt P47871); experiment: Functional cAMP activation in the presence of 0.1% casein (no HSA); type: cell-based;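 further: intracellular cAMP rise after 30 min at 37 °C, read by HTRF against a cAMP standard curve, scaled from buffer only (0%) to maximal control ligand response (100%)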
# Sequence of hGcgR (P47871 26-477): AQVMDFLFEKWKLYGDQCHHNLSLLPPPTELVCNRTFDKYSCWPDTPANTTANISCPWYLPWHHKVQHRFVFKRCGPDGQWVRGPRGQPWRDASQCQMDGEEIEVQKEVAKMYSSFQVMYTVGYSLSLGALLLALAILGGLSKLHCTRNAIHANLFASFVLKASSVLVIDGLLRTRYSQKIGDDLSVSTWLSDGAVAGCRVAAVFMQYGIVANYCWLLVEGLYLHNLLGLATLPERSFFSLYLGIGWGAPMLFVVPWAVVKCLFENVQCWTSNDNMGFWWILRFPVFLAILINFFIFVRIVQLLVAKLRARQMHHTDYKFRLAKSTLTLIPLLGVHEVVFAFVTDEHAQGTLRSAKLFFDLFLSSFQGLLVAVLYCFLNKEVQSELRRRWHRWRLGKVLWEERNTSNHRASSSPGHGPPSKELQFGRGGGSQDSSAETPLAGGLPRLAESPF
# [3] = target: T1, hGIPR (Homo sapiens, UniProt P48546); experiment: as above; type: cell-based;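 further: intracellular cAMP rise after 30 min at 37 °C read by HTRF against a standard curve, scaled between buffer alone (0%) and top control ligand concentration (100%), four-parameter fit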
# T1 sequence (P48546 22-466): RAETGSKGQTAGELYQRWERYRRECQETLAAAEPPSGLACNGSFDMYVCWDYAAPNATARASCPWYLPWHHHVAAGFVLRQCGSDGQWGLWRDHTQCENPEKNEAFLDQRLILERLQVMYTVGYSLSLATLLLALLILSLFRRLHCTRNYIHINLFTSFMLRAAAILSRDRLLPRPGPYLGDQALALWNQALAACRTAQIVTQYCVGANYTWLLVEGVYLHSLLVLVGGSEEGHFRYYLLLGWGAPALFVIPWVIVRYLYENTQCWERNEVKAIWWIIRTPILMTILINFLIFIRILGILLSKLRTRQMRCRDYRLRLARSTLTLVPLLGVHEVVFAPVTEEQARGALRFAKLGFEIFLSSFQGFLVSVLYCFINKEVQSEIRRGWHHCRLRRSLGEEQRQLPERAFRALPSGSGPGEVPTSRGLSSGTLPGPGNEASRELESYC
# [4] = target: human GcgR (Homo sapiens, UniProt P47871); experiment: Functional cAMP activity in the presence of 1% HSA; type: cell-based
# Sequence of human GcgR (P47871 26-477): as the sequence (P47871 26-477) above
# [5] = target: T1, hGIPR; experiment: Functional cAMP activity in the presence of 1% HSA; type: cell-based
# [6] = Body weight in diet-induced obese C57BL/6 mice; type: in vivo; details: 10 nmol/kg SC Q3D, 14 days, percent of starting weight, DIO mice, mean ± SEM n=5
# Description: To investigate the effect of the polypeptides as described herein on weight loss, exemplary polypeptides are dosed to C57BL/6 diet-induced obese (DIO) mice. Specifically, DIO male C57BL/6 mice (Taconic, Germantown, NY) maintained on a calorie-rich diet are used in the following studies. Mice are individually housed in a temperature-controlled (24° C.) facility with 12-hour light/dark cycle (lights on 22:00) and free access to food (TD95217) and water. After a minimum of 2 weeks acclimation to the facility, the mice are randomized according to their body weight, so each experimental group of animals would have similar starting body weight. The body weights range from 41 to 50 g. All groups contain 5 mice. […] Treatments are administered by subcutaneous (SC) injection (10 mL/kg) to ad libitum fed DIO mice 30 to 90 minutes prior to the onset of the dark cycle either once daily (QD) or once every 3 days (Q3D) for 9-16 days. Body weight and food intake are measured daily throughout the study. Body weight is presented as percent of the starting weight. […] Data are presented as mean±SEM of 5 animals per group in Table 7 below. Statistical analysis is performed using repeated measures ANOVA, followed by Dunnett's method comparison test.
# [7] = target: T2, hGLP-1R (Homo sapiens, UniProt P43220); experiment: Functional cAMP activity in the presence of 1% HSA; type: cell-based
# T2 sequence (P43220 24-463): as the sequence (P43220 24-463) above
# [8] = target: T2, hGLP-1R; experiment: Functional cAMP activation in the presence of 0.1% casein (no HSA); type: cell-based;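 on Relative cAMP EC50, hGIPR: intracellular cAMP rise after 30 min at 37 °C read by HTRF against a standard curve, scaled between buffer alone (0%) and top control ligand concentration (100%), four-parameter fit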;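 on Relative cAMP EC50, hGLP-1R: intracellular cAMP rise after 30 min at 37 °C read by HTRF, normalized between buffer only (0%) and maximal control ligand (100%), four-parameter variable-slope fit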
# [9] = test system: Intestinal organoid from Göttingen minipig jejunum tissue, 2D monolayer; experiment: Cell based in vitro permeability (Papp) assay; type: in vitro ADME
# Method in brief: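 Papp calculated from LC/MS peptide levels in apical and basal compartments. Basal sampling at 20 min with C10 present, across monolayers grown from dissociated minipig jejunal organoids in transwells.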
# [10] = HEK293 cells expressing SNAP-GLP-1R, read-out: GLP1R Internalization EC50
# [11] = in the presence of 0.1% casein (no HSA), geometric mean, read-out: Relative cAMP EC50, hGcgR
# [12] = in the presence of 0.1% casein (no HSA), geometric mean, read-out: Relative cAMP EC50, hGIPR
# [13] = read-out: cAMP Rel EC50, hGLP-1R
# [14] = in the presence of 0.1% casein (no HSA), geometric mean, read-out: Relative cAMP EC50, hGLP-1R
Compound,"pEC50 [1, 10]",Internalization % TOP [1] [%],"pEC50 [2, 11]","pEC50 [3, 12]","pEC50 ([4]; read-out: cAMP Rel EC50, hGcgR)","pEC50 ([5]; read-out: cAMP Rel EC50, hGIPR)",Body weight (%) [6],"pEC50 [7, 13]","pEC50 [8, 14]",Relative Papp (Compared to internal standard) [9],pEC50 [1],pEC50 [2],pEC50 [3],pEC50 [4],pEC50 [5],pEC50 [7],pEC50 [8]
H-Y[Aib]QGTFTSDFS[Orn][αMeL]LDKK([AEEA-AEEA-γGlu-C18 diacid])AQ[Aib]AFIEYLLE[Aib]GPSSGAPPPSGS-NH2 [Example 75],7.21,51.9,8.35,10.24,5.98,7.77,96.28 +/− 1.51%,6.06,8.36,,,,,,,,
H-Y[Aib]QGTFTSDFSK[αMeL]LDKK([AEEA-γGlu-C18 diacid])AQ[Aib]AFIEYLLAGGPSSGEPPPSGE-NH2 [Example 23],7.29,67.2,8.29,9.75,6.24,7.59,80.86 +/− 1.25**** %,6.51,8.53,,,,,,,,
Y[Aib]QGTFTSDFS[Orn][αMeL]LDKK([AEEA-γGlu-C18 diacid])AQ[Aib]AFIEYLLAGGPSSGEPPPEGE-NH2 [Example 98],7.25,49.3,8.16,9.75,6.06,7.47,90.78 +/− 1.26* %,6.18,8.36,,,,,,,,
H-Y[Aib]QGTFTSDFS[Orn][αMeL]LDKK([AEEA-γGlu-C18 diacid])AQ[Aib]AFIEWLLEGGHSSGAPPPEGS-NH2 [Example 126],7.20,38.8,8.17,9.58,5.95,7.39,95.68 +/− 0.90%,6.08,8.40,,,,,,,,
H-Y[Aib]QGTFTSD[4Pal]SR[αMeL]LDKK([AEEA-γGlu-C18 diacid])AQ[Aib]AFIEYLLE[Aib]GESSGAPPPSGS-NH2 [Example 132],7.14,67.2,8.58,9.68,6.20,7.59,98.66 +/− 0.47%,6.08,8.24,,,,,,,,
H-Y[Aib]QGTFTSDFS[Orn][αMeL]LDKK([AEEA-γGlu-C18 diacid])AQ[Aib]AFIEWLLEGGPSSGAPPPEGS-NH2 [Example 121],7.42,46.3,8.31,9.76,6.35,7.61,85.58 +/− 3.20**** %,6.46,8.62,0.08,,,,,,,
H-Y[Aib]QGTFTSDFS[Orn][αMeL]LDKK([AEEA-γGlu-C18 diacid])AQ[Aib]AFIEYLLAGGPSSGAPPPEGS-NH2 [Example 93],7.52,50.8,8.15,9.79,5.86,7.55,86.64 +/− 1.94**** %,6.40,8.58,,,,,,,,
CC[C@H](C)[C@H](NC(=O)[C@H](Cc1ccccc1)NC(=O)[C@H](C)NC(=O)C(C)(C)NC(=O)[C@H](CCC(N)=O)NC(=O)[C@H](C)NC(=O)[C@H](CCCCNC(=O)COCCOCCNC(=O)CC[C@H](NC(=O)CCCCCCCCCCCCCCCCCCC(=O)O)C(=O)O)NC(=O)[C@H](CCCCN)NC(=O)[C@H](CC(=O)O)NC(=O)[C@H](CC(C)C)NC(=O)[C@](C)(CC(C)C)NC(=O)[C@H](CCCN)NC(=O)[C@H](CO)NC(=O)[C@H](Cc1ccccc1)NC(=O)[C@H](CC(=O)O)NC(=O)[C@H](CO)NC(=O)[C@@H](NC(=O)[C@H](Cc1ccccc1)NC(=O)[C@@H](NC(=O)CNC(=O)[C@H](CCC(N)=O)NC(=O)C(C)(C)NC(=O)[C@@H](N)Cc1ccc(O)cc1)[C@@H](C)O)[C@@H](C)O)C(=O)N[C@@H](CCC(=O)O)C(=O)N[C@@H](Cc1ccc(O)cc1)C(=O)N[C@@H](CC(C)C)C(=O)N[C@@H](CC(C)C)C(=O)N[C@@H](C)C(=O)NCC(=O)NCC(=O)N1CCC[C@H]1C(=O)N[C@@H](CO)C(=O)N[C@@H](CO)C(=O)NCC(=O)N[C@@H](CCC(=O)O)C(=O)N1CCC[C@H]1C(=O)N1CCC[C@H]1C(=O)N1CCC[C@H]1C(=O)N[C@@H](CO)C(=O)N[C@@H](CCC(=O)O)C(=O)NCC(N)=O [Example 29],6.89,57,7.95,9.46,5.87,7.15,75.96 +/− 3.77**** %,6.31,8.45,,,,,,,,
H-Y[Aib]QGTFTSDFS[Dap][αMeL]LDKK([AEEA-γGlu-C18 diacid])AQ[Aib]AFIEYLLE[Aib]GPSSGAPPPSGS-NH2 [Example 134],7.17,22.3,8.14,9.82,5.92,7.42,93.28 +/− 1.38%,6.26,8.47,0.07,,,,,,,
H-Y[Aib]QGTFTSDFS[Orn][αMeL]LDKK([AEEA-γGlu-C18 diacid])AQ[Aib]AFIEWLLEGGESSGAPPPEGS-NH2 [Example 125],7.06,42.6,8.40,9.30,6.05,7.17,97.90 +/− 0.32%,5.98,8.39,,,,,,,,
H-Y[Aib]QGT[αMePhe(2-F)]TSDYSKLLDKIAQK([AEEA-γGlu-C20 diacid])AFIEYLIEGGPSSGAPPPSEG-NH2 [Example 339],,,8.17,10.00,5.82,7.54,82.36 +/− 3.01**** %,6.72,8.97,,,,,,,,
H-Y[Aib]QGTFTSDFSK[αMeL]LDKK([AEEA-γGlu-C20 diacid])AQQAFIEYLLA[Aib]GPSSGAPPPSEG-NH2 [Example 30],,72.8,,,,,90.12 +/− 0.30** %,,,,7.15,8.28,9.61,6.01,7.14,6.09,8.50
H-Y[Aib]QGTFTSDFS[Orn][αMeL]LDKK([AEEA-γGlu-C18 diacid])AQ[Aib]AFIEYLLAGGPSSGEPPPSGS-NH2 [Example 94],7.43,47.2,8.09,9.81,5.91,7.67,84.92 +/− 1.79**** %,6.32,8.58,0.02,,,,,,,
H-Y[Aib]QGTFTSDFSK[αMeL]LDKK([AEEA-γGlu-C20 diacid])AQ[Aib]AFIEWLLAGGPSSGEPPPSGE-NH2 [Example 21],7.06,72.5,7.91,9.66,5.82,7.54,83.70 +/− 0.86**** %,6.49,8.57,,,,,,,,
H-Y[Aib]QGTFTSDYSI[αMeL]LDKQAAK([AEEA-AEEA-γGlu-C20 diacid])QFVEWLIA[Aib]GPSSGEPPPAEG-NH2 [Example 334],7.55,96.8,8.17,9.65,5.68,7.14,84.78 +/− 2.74**** %,6.77,9.15,,,,,,,,
